Data: patent US20230096750A1, “Cyanine dyes and their usage for in vivo staining of microorganisms and other living cells” (Philipps-Universität Marburg, priority 2021, published 2023)
Read-outs that look alike come from different tables or passages of the source.

Assays:
dsDNA [1] = test: Fluorescence titrations (affinity towards dsDNA); format: binding; conditions: for RFU for slits 5/5: value given in Slits column for slits 5/5 nm instead of 10/10; for RFU + DNA: with DNA; for RFU − DNA: without DNA; for Kd: affinity towards dsDNA
Procedure: The affinity of the TramTO derivatives towards dsDNA is usually higher than the affinity of the derivatives without the modified side chain according to this invention. […] KD values are determined as is well known to any person being of ordinary skill in the art.

[2] = Molar extinction coefficients; format: physicochemical
dsDNA [3] = conditions: affinity towards dsDNA; read-out: KD (literature value); cited from earlier work
HeLa cells = test: Viability of HeLa cells, resazurin fluorescence-based cell viability assay; conditions: dye concentration of 10 μM
[4] = test system: live and dead bacteria (E. Coli); test: Flow cytometry of live versus dead cells labelled with 6-TramTO-1; format: cell-based; conditions: 5 μM dye for 5 min
Procedure: The flow cytometric measurements are performed by use of the LSR Fortessa cell analyser (BD Biosciences, USA) or other commercially available apparatuses (e.g. FACSAria III (BD Biosciences, USA) and Guava easyCyte (Merck Millipore, USA)). […] A minimum of 10000 events per sample is analysed. The measurements are each performed in at least two independent experiments. Bacteria are labelled for 15 min with 5 μM of the corresponding dyes. […] For 6-TramTO-1 (1) one can see clear labelling when 5 μM of the dye are added for only 5 min before the measurements, dead cells (treated with 70% isopropanol for 1 h, then washed with saline 3×) being labelled about 10× stronger: MFI 135 vs 1337. FIGS. 5A-5C show additional data. […] FIG. 5B: The graphs of FIG. 5B show flow cytometric data of mixtures of dead and live E. Coli treated with left graph: PI (20 μM) and right graph: 6-TramTO-1 (1, 5 μM) for 5 min showing that the TramTO and PI give the same results. • The parameter settings regarding excitation/emission (as far as they are applied) are equivalent to those described within the legend of FIG. 5A.

[5] = solvent DMSO; cited from earlier work

SMILES	RFU for slits 5/5 (dsDNA [1]) [RFU)]	RFU + DNA (dsDNA [1]; slits 10/10 nm) [RFU]	RFU − DNA (dsDNA [1]; slits 10/10 nm) [RFU]	Kd (dsDNA [1]) [µM]	RFU + DNA (dsDNA [1]; slits 5/5 nm) [RFU]	RFU − DNA (dsDNA [1]; slits 5/5 nm) [RFU]	Molar extinction coefficient ([2]; solvent H2O) [M⁻¹ cm⁻¹]	also measured
CN(C)c1ccc(/C=C/c2sc3ccccc3[n+]2CCCCCCn2cc(CN)nn2)cc1 [6-TramTAS (2), (E)-3-(6-(4-(aminomethyl)-1H-1,2,3-triazol-1-yl)hexyl)-2-(4-(dimethylamino)styryl)benzo[d]thiazol-3-ium]	~8	90	2.9	–	–	–	–	Molar extinction coefficient ([2]; solvent MeCN): 70463 M⁻¹ cm⁻¹
CC[n+]1ccc(/C=C/C=C2\Sc3ccccc3N2CCCCCCn2cc(CN)nn2)c2ccccc21.[I-] [6-TramTO-3 (3)]	–	–	–	23 ± 1.81	280	11.8	59403	Kd (dsDNA [3]): 19.5 ± 2.6 µM; viability of HeLa cells compared to reference (HeLa cells): about 97%
CC[n+]1ccc(/C=C2\Sc3ccccc3N2C)c2ccccc21 [CH3TO-3 (6), (Z)-1-ethyl-4-((3-methylbenzo[d]thiazol-2(3H)-ylidene)methyl)quinolin-1-ium, reference compound]	–	–	–	45 ± 1.05	210	6.8	–	Molar extinction coefficient ([2]; solvent DMSO): 37153 M⁻¹ cm⁻¹
CC[n+]1ccc(/C=C2\Sc3ccccc3N2CCCCCCn2cc(CN)nn2)c2ccccc21 [6-TramTO-1 (1), (Z)-4-((3-(6-(4-(ammoniomethyl)-1H-1,2,3-triazol-1-yl)hexyl)benzo[d]thiazol-2(3H)-ylidene)methyl)-1-ethylquinolin-1-ium]	–	–	–	8.63 ± 4.34	460	1.2	61813	affinity towards dsDNA, superior to 6-TramTAS (dsDNA [1]; ratio versus 6-TramTAS): ~3 ×; affinity towards dsDNA, superior to 6-TramTO-3 (dsDNA [1]; ratio versus 6-TramTO-3): ~2 ×; labelling of dead cells stronger than live cells [4]: about 10 ×; MFI ([4]; dead cells (70% isopropanol for 1 h)): 1337; MFI ([4]; live cells): 135
CC[n+]1ccc(/C=C2\Sc3ccccc3N2C)c2ccccc21 [CH3TO-1 (4), (Z)-1-ethyl-4-((3-methylbenzo[d]thiazol-2(3H)-ylidene)methyl)quinolin-1-ium, reference compound]	~10	125	0.2	20.6 ± 6.67	–	–	–	Molar extinction coefficient (lit.) [5]: lit. 63000 M^−1cm^−1
